Converted amounts (≈) assume the structure as drawn. Read-outs that look alike come from different tables or passages of the source.
Experiments:
P. aeruginosa Pa4 [1] = test: Agar diffusion antibacterial susceptibility assay; format: cell-based, Pseudomonas aeruginosa; set-up: key to Diameter of growth inhibition zones: partially clear inhibition zone/colonies in the inhibition zone; P: unclear inhibition zone/many colonies in the inhibition zone; indicates only a hint of growth inhibition detectable; conditions: 37° C.; for zone of inhibition at 200 µM / zone of inhibition at 100 µM: Pseudomonas aeruginosa, PA4, 24 h, read-out: Diameter of growth inhibition zones; for zone of inhibition at 200 µM / Diameter of growth inhibition zones: 50 μL of 0.2 mM solution; for Diameter of growth inhibition zones: 24 hours; for zone of inhibition at 100 µM: 50 μL of 0.1 mM solution
Protocol: (§1) All liquids and media were sterilized by autoclaving (121° C., 15 min) before use. All aqueous solutions and media were prepared using distilled, deionized, and filtered water (Millipore Milli-Q Advantage A10 Water Purification System). Luria broth (LB) was purchased from VWR. Mueller-Hinton No. 2 broth (MHII broth; cation adjusted) was purchased from Sigma-Aldrich (St. Louis, Mo.). Iron-deficient (—Fe) MHII broth was prepared by adding 0.8 mL of a 1 mg/mL sterile aq. solution of 2,2′-bipyridine to 49.2 mL of MHII broth. Iron-rich (+Fe) MHII broth was prepared by adding 0.8 mL of a 1 mg/mL sterile aq. solution of FeCl3 to 49.2 mL of MHII broth. Mueller-Hinton No. 2 agar (MHII agar; HiMedia Laboratories) was purchased from VWR. Iron-deficient (−Fe) MHII agar was prepared by adding 0.5 mL of a 1 mg/mL sterile aq. solution of 2,2′-bipyridine to 34 mL of melted MHII agar with gentle mixing. Iron-rich (+Fe) MHII agar was prepared by adding 0.5 mL of a 1 mg/mL sterile aq. solution of FeCl3 to 34 mL of melted MHII agar with gentle mixing. See also Wencewicz, T. A. Dissertation, University of Notre Dame, Notre Dame, Ind., 2011, for relevant techniques.
(§2) Antibacterial Susceptibility Testing by the Agar Diffusion Assay.
(§3) Antibacterial activity of the compounds was determined by a modified Kirby-Bauer agar diffusion assay. Overnight cultures of test organisms were grown in LB broth for 18-24 h and standard suspensions of […] were prepared in saline solution (0.9% NaCl) according to a 0.5 BaSO4 McFarland Standard. This standardized suspension (0.1 mL) was added to 34 mL of sterile, melted agar (−Fe or +Fe) tempered to 47-50° C. After gentle mixing, the inoculated agar media was poured into a sterile plastic petri dish (145 mm×20 mm) and allowed to solidify near a flame with the lid ajar for about 30 min. Wells of 9.0 mm diameter were cut from the petri dish agar and filled with exactly 50 μL of the test sample solution. The petri dish was incubated at 37° C. for 18-24 h and the inhibition zone diameters were measured (mm) with an electronic caliper after 24 h.

P. aeruginosa PAO1 [2] = test: Agar diffusion antibacterial susceptibility assay; format: cell-based; conditions: Pseudomonas aeruginosa, PAO1, 24 h, 37° C., read-out: Diameter of growth inhibition zones; for zone of inhibition at 200 µM: 50 μL of 0.2 mM solution; for zone of inhibition at 100 µM: 50 μL of 0.1 mM solution
Protocol: as §1, §2, §3

[3] = system: E. coli H1876 (fepA−, cir−, fiu−); test: Agar diffusion antibacterial susceptibility assay; format: cell-based, Escherichia coli; conditions: for Diameter of growth inhibition zones: E. coli H1876 (fepA−, cir−, fiu−), −Fe agar, 37° C., 24 hours; for zone of inhibition at 200 µM: Escherichia coli, 24 h, read-out: Diameter of growth inhibition zones
Protocol: as §1, §2, §3

P. aeruginosa Pa6 = test: MIC90 by broth microdilution assay; format: cell-based, Pseudomonas aeruginosa; conditions: for MIC90: P. aeruginosa Pa6, 37° C., 20 h; for activity against Pa6 (MIC assay, in words): exception among wild type strains
Protocol: (§4) ^aMIC90 values (μM) were determined using the broth microdilution method in Mueller-Hinton broth No. 2 (MHII) with visual end point analysis according to the CLSI guidelines (Methods for Dilution Antimicrobial Susceptibility Tests for Bacteria that Grow Aerobically, 8th ed. (Villanova, Pa., USA), Clinical and Laboratory Standards Institute (CLSI), 2009, approved standard document M07-A7). ^bEach compound was tested in triplicate.
as §1
(§5) Determination of MIC90 Values by the Broth Microdilution Assay.
(§6) Antibacterial activity of the compounds was determined by measuring their minimum inhibitory concentrations (MIC90's) using the broth microdilution method according to the Clinical and Laboratory Standards Institute (CLSI, formerly the NCCLS) guidelines. Each well of a 96-well microtiter plate was filled with 50 μL of sterile broth media (−Fe or +Fe). Each test compound was dissolved in DMSO making a 20 mM solution, and then diluted with sterile broth media (−Fe or +Fe) to 400 or 800 μM. Exactly 50 μL of the compound solution was added to the first well of the microtiter plate and 2-fold serial dilutions were made down each row of the plate. Exactly 50 μL of bacterial inoculum (5×10^5 CFU/mL in broth media) was then added to each well giving a total volume of 100 μL/well. The plate was incubated at 37° C. for 20 h and then each well was examined for bacterial growth. The MIC90 was recorded as the lowest compound concentration (μM) required to inhibit 90% of bacterial growth as judged by turbidity of the culture media relative to a row of wells filled with a DMSO standard.

[4] = system: K. pneumoniae ATCC 8303 X68; test: MIC90 by broth microdilution assay; format: cell-based; conditions: Klebsiella pneumoniae; for MIC90: ATCC8303, 20 h, K. pneumoniae ATCC 8303 X68, 37° C., 20 h; for MIC: ATCC8303, stated as inactive, read-out: MIC against K. pneumoniae
Protocol: as §4, §1, §5, §6

P. aeruginosa KW799/61 = test: MIC90 by broth microdilution assay; format: cell-based; conditions: Pseudomonas aeruginosa, KW799/61, 20 h
Protocol: as §4, §1, §5, §6

P. aeruginosa KW799/wt = test: MIC90 by broth microdilution assay; format: cell-based; conditions: Pseudomonas aeruginosa, 20 h, 37° C.
Protocol: as §4, §1, §5, §6

P. aeruginosa PAO1 [5] = test: MIC90 by broth microdilution assay; format: cell-based; conditions: Pseudomonas aeruginosa, PAO1, 20 h, 37° C.
Protocol: as §4, §1, §5, §6

P. aeruginosa Pa4 [6] = test: MIC90 by broth microdilution assay; format: cell-based; conditions: Pseudomonas aeruginosa, PA4, 20 h, 37° C.
Protocol: as §4, §1, §5, §6

[7] = system: collection of strains of P. aeruginosa; test: Agar well diffusion test (several strains); format: cell-based, Pseudomonas aeruginosa; conditions: KW799/wt, PAO1, Pa4, and Pa6; Table 1
Protocol: Conjugates 10 and 11 were first evaluated for their antibacterial ability against a collection of strains of P. aeruginosa using the agar well diffusion test. The influence of iron concentration on antibacterial activity was probed as well by conducting assays in iron-rich and iron-deficient media.
as §1, §2, §3

[8] = system: various wild type strains of P. aeruginosa; test: MIC by broth microdilution (text summary over strains); format: cell-based; conditions: Pseudomonas aeruginosa, iron-deficient medium, read-out: MICs against various wild type strains of P. aeruginosa
Protocol: as §1

[9] = −Fe (iron-deficient) MHII broth
[10] = Pseudomonas aeruginosa, +Fe (iron-rich) MHII broth
[11] = read-out: MIC (MIC90), P. aeruginosa KW799/61, +Fe (iron-rich) MHII broth, 37° C.
[12] = read-out: MIC (MIC90), P. aeruginosa KW799/61, −Fe (iron-deficient) MHII broth, 37° C.

| SMILES | zone of inhibition at 200 µM (P. aeruginosa Pa4 [1]; +Fe agar) [mm] | Diameter of growth inhibition zones (P. aeruginosa Pa4 [1]; −Fe agar) | zone of inhibition at 200 µM (P. aeruginosa PAO1 [2]; +Fe agar) [mm] | zone of inhibition at 200 µM (P. aeruginosa PAO1 [2]; −Fe agar) [mm] | Diameter of growth inhibition zones ([3]; 50 μL of 0.2 mM solution) | zone of inhibition at 200 µM [3] [mm] | MIC90 (P. aeruginosa Pa6; [9]) [µM] | MIC90 (P. aeruginosa Pa6; [10]) [µM] | MIC90 ([4]; +Fe (iron-rich) MHII broth) [µM] | MIC90 [4, 9] [µM] | MIC90 (P. aeruginosa KW799/61; [11]) [µM] | MIC90 (P. aeruginosa KW799/61; [12]) [µM] | MIC90 (P. aeruginosa KW799/wt; +Fe (iron-rich) MHII broth) [µM] | MIC90 (P. aeruginosa KW799/wt; [9]) [µM] | MIC90 (P. aeruginosa PAO1 [5]; +Fe (iron-rich) MHII broth) [µM] | MIC90 (P. aeruginosa PAO1 [5]; [9]) [µM] | MIC90 (P. aeruginosa Pa4 [6]; +Fe (iron-rich) MHII broth) [µM] | MIC90 (P. aeruginosa Pa4 [6]; [9]) [µM] | activity against wild type strains of P. aeruginosa (agar diffusion, in words) [7] | MIC [8] [µM] | further results |
| --- | --- | --- | --- | --- | --- | --- | --- | --- | --- | --- | --- | --- | --- | --- | --- | --- | --- | --- | --- | --- | --- |
| CC1(C)S[C@@H]2[C@H](NC(=O)[C@H](N)c3ccc(O)cc3)C(=O)N2[C@H]1C(=O)O [Amoxicillin, reference compound] | 0 | h | 0 | 0 | 0 mm | 0 | >200 | > 200 | 100 (≈ 36.5 µg/mL) | > 100 | 0.46 (≈ 0.168 µg/mL) | 0.39 (≈ 0.143 µg/mL) | > 200 | > 200 | > 200 | > 100 | > 200 | > 100 | inactive or only weakly active | > 100 | – |
| CC1(C)S[C@@H]2[C@H](NC(=O)[C@H](N)c3ccccc3)C(=O)N2[C@H]1C(=O)O [Ampicillin, reference compound] | 0 | h | 0 | 0 | 0 mm | 0 | >200 | > 200 | > 200 | > 100 | 0.52 (≈ 0.182 µg/mL) | 0.78 (≈ 0.273 µg/mL) | > 200 | > 200 | > 200 | > 100 | > 200 | > 100 | inactive or only weakly active | > 100 | – |
| CC(=O)Oc1cccc(C(=O)NCCCC(CCCNC(=O)c2cccc(OC(C)=O)c2OC(C)=O)(CCCNC(=O)c2cccc(OC(C)=O)c2OC(C)=O)NC(=O)CCC(=O)NC(C(=O)NC2C(=O)N3C2SC(C)(C)C3C(=O)O)c2ccccc2)c1OC(C)=O (centres unmarked) [Compound 10] | – | – | – | – | – | – | >200 | > 200 | > 200 | > 100 | 12.5 (≈ 16.2 µg/mL) | 0.067 (≈ 0.0867 µg/mL) | 33 (≈ 42.7 µg/mL) | 0.05 (≈ 0.0647 µg/mL) | 50 (≈ 64.7 µg/mL) | 0.39 (≈ 0.505 µg/mL) | 25 (≈ 32.4 µg/mL) | 0.39 (≈ 0.505 µg/mL) | – | 0.05 to 0.39 (≈ 0.0647 to 0.505 µg/mL) | zone of inhibition at 100 µM (P. aeruginosa Pa4 [1]; +Fe agar): 0 mm; zone of inhibition at 100 µM (P. aeruginosa Pa4 [1]; −Fe agar): 18 mm; zone of inhibition at 100 µM (P. aeruginosa PAO1 [2]; +Fe agar): 0 mm; zone of inhibition at 100 µM (P. aeruginosa PAO1 [2]; −Fe agar): 16 mm; Diameter of growth inhibition zones ([3]; 50 μL of 0.1 mM solution): 0 mm; activity against Pa6 (MIC assay, in words) (P. aeruginosa Pa6): inactive; MIC [4]: > 100 µM |
| CC(=O)Oc1cccc(C(=O)NCCCC(CCCNC(=O)c2cccc(OC(C)=O)c2OC(C)=O)(CCCNC(=O)c2cccc(OC(C)=O)c2OC(C)=O)NC(=O)CCC(=O)NC(C(=O)NC2C(=O)N3C2SC(C)(C)C3C(=O)O)c2ccc(O)cc2)c1OC(C)=O (centres unmarked) [Compound 11] | 0 | – | 0 | 19 | 14p | – | >200 | > 200 | > 200 | > 100 | 12.5 (≈ 16.4 µg/mL) | 0.083 (≈ 0.109 µg/mL) | 25 (≈ 32.8 µg/mL) | 0.05 (≈ 0.0655 µg/mL) | 50 (≈ 65.5 µg/mL) | 0.39 (≈ 0.511 µg/mL) | 25 (≈ 32.8 µg/mL) | 0.21 (≈ 0.275 µg/mL) | – | 0.05 to 0.39 (≈ 0.0655 to 0.511 µg/mL) | zone of inhibition at 200 µM (P. aeruginosa Pa4 [1]; −Fe agar): 20 mm; activity against Pa6 (MIC assay, in words) (P. aeruginosa Pa6): inactive; MIC [4]: > 100 µM |
